Drawing on patent US8455475B2 (Gruenenthal GmbH, priority 2009, dated 2013), this text covers inhibition for 23 compounds.

In assay [1] the target is T1, rat B1R (bradykinin receptor 1) (Rattus norvegicus, UniProt P97583).
T1 construct: expressed in transfected cells; host or cells: CHO K1 cells
T1 sequence (P97583 1-337): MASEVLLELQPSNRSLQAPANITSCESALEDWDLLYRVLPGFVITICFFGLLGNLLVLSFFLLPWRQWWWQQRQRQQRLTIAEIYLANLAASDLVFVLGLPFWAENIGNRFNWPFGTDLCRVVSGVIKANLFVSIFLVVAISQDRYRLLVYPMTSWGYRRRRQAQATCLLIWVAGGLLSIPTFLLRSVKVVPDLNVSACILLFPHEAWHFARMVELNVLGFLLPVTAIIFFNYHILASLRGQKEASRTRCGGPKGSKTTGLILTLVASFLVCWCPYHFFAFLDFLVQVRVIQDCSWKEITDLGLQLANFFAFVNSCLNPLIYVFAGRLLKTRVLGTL
Description: FLIPR Ca2+ assay (Fluo-4) on CHO K1 cells stably transfected with the B1R gene of the rat (rB1R cells): % inhibition at 10 μM / IC50, agonist Des-Arg9-bradykinin. The class given is cell-based. To be noted: CHO-K1, rat B1R. The method in brief: (§1)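 Using a two-addition FLIPR protocol, compound (10 μM for % values; concentration series for IC50) was preincubated 10–20 min with Fluo-4-loaded B1R-expressing CHO K1 cells before EC80 agonist challenge. Suppression of Ca2+ inflow, read as peak fluorescence, is expressed relative to maximum achievable inhibition; duplicate/triplicate, ≥2 independent experiments.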

Assay [2] has as its target T2, human B1R (bradykinin receptor 1) (Homo sapiens, UniProt P46663).
T2 construct: expressed in transfected cells; host or cells: CHO K1 cells
T2 sequence (P46663 1-353): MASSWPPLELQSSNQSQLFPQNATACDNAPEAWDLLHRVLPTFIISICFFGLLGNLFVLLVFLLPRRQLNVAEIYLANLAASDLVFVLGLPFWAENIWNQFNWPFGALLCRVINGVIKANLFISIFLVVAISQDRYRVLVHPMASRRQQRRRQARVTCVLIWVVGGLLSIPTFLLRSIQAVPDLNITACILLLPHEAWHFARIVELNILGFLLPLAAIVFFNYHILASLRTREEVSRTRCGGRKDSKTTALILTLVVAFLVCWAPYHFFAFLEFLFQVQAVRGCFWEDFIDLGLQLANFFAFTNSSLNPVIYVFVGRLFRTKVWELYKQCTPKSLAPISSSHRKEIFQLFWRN
Nature of the assay: FLIPR Ca2+ assay (Fluo-4) on CHO K1 cells stably transfected with the human B1R gene (hB1R cells): % inhibition at 10 μM / IC50, agonist Lys-Des-Arg9-bradykinin. The class given is cell-based. To be noted: CHO-K1, human B1R. Put shortly:
as §1

As to `Cc1ccc(F)c(C(=O)NC2CCc3ccc(C(=O)N4CCC5(CCN(c6ccncc6)CC5)C4)cc32)c1Cl` (stereo not shown) [IND_CC-249, 2-Chloro-6-fluoro-3-methyl-N-[6-(8-pyridin-4-yl-2,8-diazaspiro[4.5]decane-2-carbonyl)-2,3-dihydro-1H-inden-1-yl]-benzamide], the inhibition at 10 µM in assay [1] and in assay [2] was 99% throughout.

For `O=C(N[C@H]1CCc2c(C(=O)N3CCC4(CC3)CCN(c3ccncc3)CC4)cccc21)c1ccccc1Cl` [Example H-163, 2-Chloro-N-[(1S)-4-(9-pyridin-4-yl-3,9-diazaspiro[5.5]undecane-3-carbonyl)-2,3-dihydro-1H-inden-1-yl]-benzamide], the inhibition at 10 µM in assay [1] was 105%; in assay [2], 63%.

With `Cc1ccccc1S(=O)(=O)N[C@@H]1CCc2ccc(C(=O)N3CCC4(CCN(c5ccncc5)CC4)C3)cc21` [Example H-117, 2-Methyl-N-[(1R)-6-(8-pyridin-4-yl-3,8-diazaspiro[4.5]decane-3-carbonyl)-2,3-dihydro-1H-inden-1-yl]-benzensulfonic acid amide], the inhibition at 10 µM in assay [1] came to 101%; in assay [2] it was 100%.

`CC1(C)CC(NC(=O)c2ccccc2C(F)(F)F)c2cc(C(=O)N3CCC4(CC3)CCN(c3ccncc3)CC4)ccc21` (stereo not shown) [Ind_CC-058, N-[3,3-dimethyl-6-(9-pyridin-4-yl-3,9-diazaspiro[5.5]undecane-3-carbonyl)-1,2-dihydro-inden-1-yl]-2-(trifluoromethyl)-benzamide]: the values for the inhibition at 10 µM in assay [1] and in assay [2] were 101% and 100%, respectively.

In the case of `Cc1ccc(C(=O)NC2CCc3ccc(C(=O)N4CCC5(CC4)CCN(c4ccncc4)CC5)cc32)c(F)c1` (stereo not shown) [IND_CC-305, 2-Fluoro-4-methyl-N-[6-(9-pyridin-4-yl-3,9-diazaspiro[5.5]undecane-3-carbonyl)-2,3-dihydro-1H-inden-1-yl]-benzamide], the inhibition at 10 µM in assay [1] was determined as 104%; in assay [2] it was 67%.

For the compound `O=C(N[C@@H]1CCOc2c(F)cc(C(=O)N3CCC4(CC3)CCN(c3ccncc3)CC4)cc21)c1ccccc1Cl` [Example H-78], the inhibition at 10 µM stood at 104% in assay [1] and 100% in assay [2].

As to `CC1(C)CC(NC(=O)c2cc(F)ccc2Cl)c2cc(C(=O)N3CCC4(CC3)CCN(c3ccncc3)CC4)ccc21` (stereo not shown) [IND_CC-252, 2-Chloro-N-[3,3-dimethyl-6-(3-pyridin-4-yl-3,9-diazaspiro[5.5]undecane-9-carbonyl)-1,2-dihydro-inden-1-yl]-5-fluoro-benzamide], the inhibition at 10 µM in assay [1] turned out to be 102%; in assay [2] it was 100%.

Take `O=C(NC1CCc2ccc(C(=O)N3CCC4(CCN(c5ccncc5)CC4)C3)cc21)c1ccc(F)cc1Cl` (stereo not shown) [IND_CC-277, 2-Chloro-4-fluoro-N-[6-(8-pyridin-4-yl-2,8-diazaspiro[4.5]decane-2-carbonyl)-2,3-dihydro-1H-inden-1-yl]-benzamide]: the inhibition at 10 µM was 105% in assay [1] and 100% in assay [2].

On to `O=C(c1ccc2c(c1)C(N(C(=O)c1ccccc1Cl)C1CC1)CC2)N1CCC2(CC1)CCN(c1cccnc1)CC2` (stereo not shown) [Ind_CC-114, 2-chloro-N-cyclopropyl-N-[6-(9-pyridin-3-yl-3,9-diazaspiro[5.5]undecane-3-carbonyl)-2,3-dihydro-1H-inden-1-yl]-benzamide], for which the inhibition at 10 µM stood at 101% in assay [1] and 99% in assay [2].

On to `O=C(N[C@@H]1CCCc2ccc(C(=O)N3CCC4(CC3)CCN(c3ccncc3)CC4)cc21)c1ccccc1Cl` [Example H-09, 2-chloro-N-[(1R)-7-(9-pyridin-4-yl-3,9-diazaspiro[5.5]undecane-3-carbonyl)-1,2,3,4-tetrahydro-naphthalen-1-yl]-benzamide], for which the results for the inhibition at 10 µM in assay [1] and in assay [2] were 102% and 100%, respectively.

For the compound `CC1(C)Cc2ccc(C(=O)N3CCC4(CC3)CCN(c3ccncc3)CC4)cc2C1NC(=O)c1cccc(Cl)c1Cl` (stereo not shown) [IND_CC-282, 2,3-Dichloro-N-[2,2-dimethyl-6-(9-pyridin-4-yl-3,9-diazaspiro[5.5]undecane-3-carbonyl)-1,3-dihydro-inden-1-yl]-benzamide], the inhibition at 10 µM in assay [1] came to 107%; in assay [2] it was 69%.

As for `CC1(C)CC(NC(=O)c2c(Cl)cccc2C(F)(F)F)c2cc(C(=O)N3CCC4(CC3)CCN(c3ccncc3)CC4)ccc21` (stereo not shown) [IND_CC-243, 2-Chloro-N-[3,3-dimethyl-6-(3-pyridin-4-yl-3,9-diazaspiro[5.5]undecane-9-carbonyl)-1,2-dihydro-inden-1-yl]-6-(trifluoromethyl)-benzamide], the results for the inhibition at 10 µM in assay [1] and in assay [2] were 99% and 100%, respectively.

In the case of `CN(C(=O)c1ccc(Cl)s1)C1CCc2ccc(C(=O)N3CCC4(CC3)CCN(c3ccncc3)CC4)cc21` (stereo not shown) [Ind_CC-017, 5-chloro-N-methyl-N-[6-(9-pyridin-4-yl-3,9-diazaspiro[5.5]undecane-3-carbonyl)-2,3-dihydro-1H-inden-1-yl]-thiophene-2-carboxylic acid amide], the inhibition at 10 µM was 102% in assay [1] and 99% in assay [2].

Take `O=C(N[C@@H]1CCc2ccc(C(=O)N3CCC4(CCC(c5cccnc5)CC4)C3)cc21)c1ccccc1Cl` (stereo partly drawn) [Example H-135, 2-Chloro-N-[(1R)-6-(8-pyridin-3-yl-3-azaspiro[4.5]decane-3-carbonyl)-2,3-dihydro-1H-inden-1-yl]-benzamide]: the inhibition at 10 µM amounted to 101% in assay [1] and 80% in assay [2].

Regarding `O=C(c1ccc2c(c1)CC[C@@H]2N1Cc2cccc(Cl)c2C1=O)N1CCC2(CCN(c3ccncc3)CC2)C1` [Example H-157], the inhibition at 10 µM in assay [1] was 98%; in assay [2] it was 100%.

Turning to `CN(C(=O)/C=C/c1ccccc1Cl)C1CCc2ccc(C(=O)N3CCC4(CC3)CCN(c3ccncc3)CC4)cc21` (stereo not shown) [Ind_CC-020, (E)-3-(2-chlorophenyl)-N-methyl-N-[6-(9-pyridin-4-yl-3,9-diazaspiro[5.5]undecane-3-carbonyl)-2,3-dihydro-1H-inden-1-yl]-acrylamide], the inhibition at 10 µM came to 88% in assay [1] and 89% in assay [2].

For the compound `O=C(N[C@@H]1CCc2ccc(C(=O)N3CCC4(CC3)CCN(c3ccncc3)C4)cc21)c1ccccc1Cl` [Example H-91, 2-Chloro-N-[(1R)-6-(3-pyridin-4-yl-3,8-diazaspiro[4.5]decane-8-carbonyl)-2,3-dihydro-1H-inden-1-yl]-benzamide], the inhibition at 10 µM in assay [1] is 104%; in assay [2], 100%.

For the compound `Cc1cc(OC(F)(F)F)ccc1C(=O)N(C)C1CCc2ccc(C(=O)N3CCC4(CC3)CCN(c3ccncc3)CC4)cc21` (stereo not shown) [IND_CC-299, N,2-Dimethyl-N-[6-(9-pyridin-4-yl-3,9-diazaspiro[5.5]undecane-3-carbonyl)-2,3-dihydro-1H-inden-1-yl]-4-(trifluoromethyloxy)-benzamide], the inhibition at 10 µM amounted to 106% in assay [1] and 27% in assay [2].

For the compound `O=C(NC1CCc2ccc(C(=O)N3CCC4(CC3)CCN(c3ccncc3)CC4)cc21)c1sccc1Cl` (stereo not shown) [Ind_CC-004, 3-chloro-N-[6-(9-pyridin-4-yl-3,9-diazaspiro[5.5]undecane-3-carbonyl)-2,3-dihydro-1H-inden-1-yl]-thiophene-2-carboxylic acid amide], the inhibition at 10 µM is 98% in assay [1] and 99% in assay [2].

With `O=C(N[C@@H]1CCCc2ccc(C(=O)N3CCC4(CCCN(c5ccncc5)C4)C3)cc21)c1ccccc1Cl` (stereo partly drawn) [Example H-81, 2-Chloro-N-[(1R)-7-(7-pyridin-4-yl-3,7-diazaspiro[4.5]decane-3-carbonyl)-1,2,3,4-tetrahydro-naphthalen-1-yl]-benzamide], the inhibition at 10 µM was found to be 103% in assay [1] and 78% in assay [2].

In the case of `CN(C(=O)c1cc(F)ccc1Cl)C1CCc2ccc(C(=O)N3CCC4(CC3)CCN(c3ccncc3)CC4)cc21` (stereo not shown) [IND_CC-203, 2-Chloro-5-fluoro-N-methyl-N-[6-(9-pyridin-4-yl-3,9-diazaspiro[5.5]undecane-3-carbonyl)-2,3-dihydro-1H-inden-1-yl]-benzamide], the inhibition at 10 µM in assay [1] stood at 103%; in assay [2] it was 99%.

Take `O=C(c1ccc2c(c1)C(NS(=O)(=O)Cc1ccccc1C(F)(F)F)CC2)N1CCC2(CCN(c3ccncc3)CC2)C1` (stereo not shown) [IND_CC-258, N-[6-(8-Pyridin-4-yl-2,8-diazaspiro[4.5]decane-2-carbonyl)-2,3-dihydro-1H-inden-1-yl]-1-[2-(trifluoromethyl)-phenyl]-methanesulfonic acid amide]: the inhibition at 10 µM was 95% in assay [1] and 100% in assay [2].

On to `COc1ccc(C(=O)N[C@@H]2CCc3ccc(C(=O)N4CCC5(CCN(c6ccncc6)CC5)C4)cc32)c(F)c1` [Example H-108, 2-Fluoro-4-methoxy-N-[(1R)-6-(8-pyridin-4-yl-3,8-diazaspiro[4.5]decane-3-carbonyl)-2,3-dihydro-1H-inden-1-yl]-benzamide], for which the inhibition at 10 µM in assay [1] was found to be 111%; in assay [2], 100%.

Usually inhibition stands for the drop in the measured response relative to a control, in per cent.
